Measurements published in patent US20250214967A1, “FAK DEGRADERS, PHARMACEUTICAL COMPOSITIONS, AND THERAPEUTIC APPLICATIONS” (Berrybio (Shanghai) Limited, priority 2022, published 2025).

Molecular target: FAK (Homo sapiens (Human), UniProt Q05397)
Assay: FAK Degradation Assay (Western blot, FAK/GAPDH)
Format: cell-based
Conditions: MDA-MB-231 cells, 24 h treatment, Western blot normalized to DMSO; for DC50: read-out: DC50 (half-maximal degradation concentration), FAK Degradation; for Dmax: read-out: Dmax (maximal degradation), FAK Degradation
Experimental: H2122 (4×10^5), MIA PaCa-2 (6×10s), or MDA-MB-231 cells (6×10^5) per well were seeded into a 6-well plate containing 2 mL of complete culture medium (RPMI-1640 for H2122 and MDA-MB-231, and DMEM/F12 for MIA PaCa-2, supplemented with 10% FBS and 1% penicillin/streptomycin). The cells were cultured overnight at 37° C. in the presence of 5% C02 before treated with a compound in a series of concentrations for 24 h. The cells were then washed with ice-cold Dulbecco's phosphate-buffered saline (DPBS). A radioimmuno-precipitation assay (RIPA) buffer was added to lyse the cells on ice for 20 min. The cells were then scrapped using cell scraper and collected in a 1.5 mL tube, which was centrifuged at 14,000 g and 4° C. for 15 min. The supernatant was collected and the total protein concentration of each sample was determined using a PIERCE™ BCA protein assay kit. The supernatant was diluted to the same protein concentration with the RIPA buffer after the BCA assay. Samples of the same protein amount were mixed with 4× a lithium dodecyl sulfate (LDS) sample buffer and boiled at 95° C. for 5 min. The denatured samples were used for electrophoresis.
For Western blot, the same volume containing ˜50 μg protein for each sample was loaded onto 4-12% Bis-Tris protein gel. The gel was run at 80 V for 0.5 h and at 120 V for 1 h. When the electrophoresis was completed, an IBLOT™ 2 gel transfer device was used to transfer FAK and GAPDH proteins at 20 V for 7 min. All the membranes were blocked in 5% nonfat dry milk in a TBST buffer at RT for 1 h and then incubated with primary antibodies (anti-FAK and anti-GAPDH) in a TBST buffer containing 5% BSA at 4° C. overnight. The membranes were washed with the TBST buffer and then incubated with secondary antibodies (goat anti-rabbit IgG H&L for FAK and goat anti-mouse IgG H&L for GAPDH) at room temperature for 1 h. Blots were visualized using an IMAGEQUANT™ LAS-4000. The chemiluminescent signals from ECL™ Western blotting reagents were captured. The band integrated intensity from each 16-bit blot image was used for quantitation. The FAK/GAPDH signal ratios of each sample were normalized using DMSO as a control and the normalized data for each compound were used to obtain its half-maximal degradation concentration (DC50) and maximal degradation (Dmax).

Sequence of FAK (Q05397 whole entry): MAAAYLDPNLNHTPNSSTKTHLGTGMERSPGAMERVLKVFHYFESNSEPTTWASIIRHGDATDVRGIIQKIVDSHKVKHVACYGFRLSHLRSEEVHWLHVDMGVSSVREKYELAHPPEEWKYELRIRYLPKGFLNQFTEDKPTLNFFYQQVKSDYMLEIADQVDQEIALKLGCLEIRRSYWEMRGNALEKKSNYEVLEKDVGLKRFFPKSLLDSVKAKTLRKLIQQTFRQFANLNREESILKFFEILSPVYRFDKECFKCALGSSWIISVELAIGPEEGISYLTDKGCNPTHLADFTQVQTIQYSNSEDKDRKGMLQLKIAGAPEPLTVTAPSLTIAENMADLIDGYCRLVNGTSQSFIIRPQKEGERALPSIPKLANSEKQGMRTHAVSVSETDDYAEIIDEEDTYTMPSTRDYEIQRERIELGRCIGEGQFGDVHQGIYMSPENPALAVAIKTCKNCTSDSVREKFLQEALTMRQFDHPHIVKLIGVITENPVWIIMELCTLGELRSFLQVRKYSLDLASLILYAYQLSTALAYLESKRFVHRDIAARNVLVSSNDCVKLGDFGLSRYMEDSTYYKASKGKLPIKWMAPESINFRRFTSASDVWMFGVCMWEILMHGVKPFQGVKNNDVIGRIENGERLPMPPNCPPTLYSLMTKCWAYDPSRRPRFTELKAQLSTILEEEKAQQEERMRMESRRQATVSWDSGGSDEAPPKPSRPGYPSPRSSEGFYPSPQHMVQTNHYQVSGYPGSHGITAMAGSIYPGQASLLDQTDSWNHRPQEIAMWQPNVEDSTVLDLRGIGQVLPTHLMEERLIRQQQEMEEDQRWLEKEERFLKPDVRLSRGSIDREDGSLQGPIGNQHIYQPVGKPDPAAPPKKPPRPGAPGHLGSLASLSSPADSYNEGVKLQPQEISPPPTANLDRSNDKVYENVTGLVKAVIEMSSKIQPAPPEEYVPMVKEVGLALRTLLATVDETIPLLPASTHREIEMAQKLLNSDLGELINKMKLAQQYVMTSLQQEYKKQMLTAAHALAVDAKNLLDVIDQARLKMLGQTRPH

Structure (SMILES) | DC50 | Dmax
CN(c1nccnc1CNc1nc(Nc2ccc(OCCCCCCOc3ccc4c(c3)C(=O)N(C3CCC(=O)NC3=O)C4=O)cc2)ncc1C(F)(F)F)S(C)(=O)=O (centres unmarked) [Compound A8, N-(3-(((2-((4-((6-((2-(2,6-Dioxopiperidin-3-yl)-1,3-dioxoisoindolin-5-yl)oxy)-hexyl)oxy)phenyl)amino)-5-(trifluoromethyl)pyrimidin-4-yl)amino)methyl)pyrazin-2-yl)-N-methylmethanesulfonamide] | 4.1 nM | 100%
CN(c1nccnc1CNc1nc(Nc2ccc(OCCCCCCCOc3ccc4c(c3)C(=O)N(C3CCC(=O)NC3=O)C4=O)cc2)ncc1C(F)(F)F)S(C)(=O)=O (centres unmarked) [Compound A9, N-(3-(((2-((4-((7-((2-(2,6-Dioxopiperidin-3-yl)-1,3-dioxoisoindolin-5-yl)oxy)-heptyl)oxy)phenyl)amino)-5-(trifluoromethyl)pyrimidin-4-yl)amino)methyl)pyrazin-2-yl)-N-methylmethanesulfonamide] | 14 nM | 100%
CN(c1nccnc1CNc1nc(Nc2cccc(C(=O)NC3CCN(CC4CCN(c5ccc6c(c5)C(=O)N(C5CCC(=O)NC5=O)C6=O)CC4)CC3)c2)ncc1C(F)(F)F)S(C)(=O)=O (centres unmarked) [Compound A10, N-(1-((1-(2-(2,6-Dioxopiperidin-3-yl)-1,3-dioxoisoindolin-5-yl)piperidin-4-yl)-methyl)piperidin-4-yl)-3-((4-(((3-(N-methylmethylsulfonamido)pyrazin-2-yl)methyl)amino)-5-(trifluoromethyl)pyrimidin-2-yl)amino)benzamide] | 2.1 nM | 98%
CN(c1nccnc1CNc1nc(Nc2cccc(C(=O)N3CCC(N4CCN(c5ccc6c(c5)C(=O)N(C5CCC(=O)NC5=O)C6=O)CC4)CC3)c2)ncc1C(F)(F)F)S(C)(=O)=O (centres unmarked) [Compound A11, N-(3-(((2-((3-(4-(4-(2-(2,6-Dioxopiperidin-3-yl)-1,3-dioxoisoindolin-5-yl)-piperazin-1-yl)piperidine-1-carbonyl)phenyl)amino)-5-(trifluoromethyl)pyrimidin-4-yl)amino)-methyl)pyrazin-2-yl)-N-methylmethanesulfonamide] | 0.83 nM | 94%
CN(c1nccnc1CNc1nc(Nc2cccc(C(=O)NC3CCN(c4ccc5c(c4)C(=O)N(C4CCC(=O)NC4=O)C5=O)CC3)c2)ncc1C(F)(F)F)S(C)(=O)=O (centres unmarked) [Compound A12, N-(1-(2-(2,6-dioxopiperidin-3-yl)-1,3-dioxoisoindolin-5-yl)piperidin-4-yl)-3-((4-(((3-(N-methylmethylsulfonamido)pyrazin-2-yl)methyl)amino)-5-(trifluoromethyl)pyrimidin-2-yl)amino)benzamide] | 5.6 nM | 98%
CN(c1nccnc1CNc1nc(Nc2cccc(C(=O)N3CC(OC4CCN(c5ccc6c(c5)C(=O)N(C5CCC(=O)NC5=O)C6=O)CC4)C3)c2)ncc1C(F)(F)F)S(C)(=O)=O (centres unmarked) [Compound A13, N-(3-(((2-((3-(3-((1-(2-(2,6-dioxopiperidin-3-yl)-1,3-dioxoisoindolin-5-yl)-piperidin-4-yl)oxy)azetidine-1-carbonyl)phenyl)amino)-5-(trifluoromethyl)pyrimidin-4-yl)-amino)methyl)pyrazin-2-yl)-N-methylmethanesulfonamide] | 1.4 nM | 94%
CN(c1ccccc1CNc1cc(Nc2ccc(CNC3CCN(c4ccc5c(c4)C(=O)N(C4CCC(=O)NC4=O)C5=O)CC3)cc2)ncc1C(F)(F)F)S(C)(=O)=O (centres unmarked) [Compound A14, N-(2-(((2-((4-(((1-(2-(2,6-dioxopiperidin-3-yl)-1,3-dioxoisoindolin-5-yl)piperidin-4-yl)amino)methyl)phenyl)amino)-5-(trifluoromethyl)pyridin-4-yl)amino)methyl)phenyl)-N-methylmethanesulfonamide] | 10 nM | 93%
CN(c1ccccc1CNc1cc(Nc2ccc(C(=O)NC3CCN(c4ccc5c(c4)C(=O)N(C4CCC(=O)NC4=O)C5=O)CC3)cc2)ncc1C(F)(F)F)S(C)(=O)=O (centres unmarked) [Compound A15, N-(1-(2-(2,6-dioxopiperidin-3-yl)-1,3-dioxoisoindolin-5-yl)piperidin-4-yl)-4-((4-((2-(N-methylmethylsulfonamido)benzyl)amino)-5-(trifluoromethyl)pyridin-2-yl)amino)-benzamide] | 2.6 nM | 93%
CN(c1cccc(CNc2cc(Nc3ccc(CNC4CCN(c5ccc6c(c5)C(=O)N(C5CCC(=O)NC5=O)C6=O)CC4)cc3)ncc2C(F)(F)F)c1)S(C)(=O)=O (centres unmarked) [Compound A16, N-(3-(((2-((4-(((1-(2-(2,6-Dioxopiperidin-3-yl)-1,3-dioxoisoindolin-5-yl)-piperidin-4-yl)amino)methyl)phenyl)amino)-5-(trifluoromethyl)pyridin-4-yl)amino)methyl)-phenyl)-N-methylmethanesulfonamide] | 2.7 nM | 93%
CNC(=O)c1ccccc1Nc1cc(Nc2ccc3c(c2)CC(=O)N3CC2CCN(c3ccc4c(c3)C(=O)N(C3CCC(=O)NC3=O)C4=O)CC2)ncc1C(F)(F)F (centres unmarked) [Compound A17, 2-((2-((1-((1-(2-(2,6-Dioxopiperidin-3-yl)-1,3-dioxoisoindolin-5-yl)piperidin-4-yl)methyl)-2-oxoindolin-5-yl)amino)-5-(trifluoromethyl)pyridin-4-yl)amino)-N-methyl-benzamide] | 1.7 nM | 88%
CN(c1ccccc1CNc1cc(Nc2ccc(CN3CC(Oc4ccc5c(c4)C(=O)N(C4CCC(=O)NC4=O)C5=O)C3)cc2)ncc1C(F)(F)F)S(C)(=O)=O (centres unmarked) [Compound A18, N-(2-(((2-((4-((3-((2-(2,6-Dioxopiperidin-3-yl)-1,3-dioxoisoindolin-5-yl)oxy)-azetidin-1-yl)methyl)phenyl)amino)-5-(trifluoromethyl)pyridin-4-yl)amino)methyl)phenyl)-N-methylmethanesulfonamide] | 21 nM | 84%
CN(c1ccccc1CNc1cc(Nc2ccc(CNC3CN(c4ccc5c(c4)C(=O)N(C4CCC(=O)NC4=O)C5=O)C3)cc2)ncc1C(F)(F)F)S(C)(=O)=O (centres unmarked) [Compound A19, N-(2-(((2-((4-(((1-(2-(2,6-Dioxopiperidin-3-yl)-1,3-dioxoisoindolin-5-yl)azetidin-3-yl)amino)methyl)phenyl)amino)-5-(trifluoromethyl)pyridin-4-yl)amino)methyl)phenyl)-N-methylmethanesulfonamide] | 2.8 nM | 96%
CN(c1ccccc1CNc1cc(Nc2ccc(C(=O)NC3CN(c4ccc5c(c4)C(=O)N(C4CCC(=O)NC4=O)C5=O)C3)cc2)ncc1C(F)(F)F)S(C)(=O)=O (centres unmarked) [Compound A20, N-(1-(2-(2,6-Dioxopiperidin-3-yl)-1,3-dioxoisoindolin-5-yl)azetidin-3-yl)-4-((4-((2-(N-methylmethylsulfonamido)benzyl)amino)-5-(trifluoromethyl)pyridin-2-yl)amino)-benzamide] | 4.6 nM | 79%
CNC(=O)c1ccccc1Nc1cc(Nc2ccc(C(=O)NC3CCN(c4ccc5c(c4)C(=O)N(C4CCC(=O)NC4=O)C5=O)CC3)cc2)ncc1C(F)(F)F (centres unmarked) [Compound A21, 2-((2-((4-((1-(2-(2,6-Dioxopiperidin-3-yl)-1,3-dioxoisoindolin-5-yl)piperidin-4-yl)carbamoyl)phenyl)amino)-5-(trifluoromethyl)pyridin-4-yl)amino)-N-methylbenzamide] | 1.3 nM | 93%
CNC(=O)c1ccccc1Nc1cc(Nc2ccc(CNC3CCN(c4ccc5c(c4)C(=O)N(C4CCC(=O)NC4=O)C5=O)CC3)cc2)ncc1C(F)(F)F (centres unmarked) [Compound A22, 2-((2-((4-(((1-(2-(2,6-Dioxopiperidin-3-yl)-1,3-dioxoisoindolin-5-yl)piperidin-4-yl)amino)methyl)phenyl)amino)-5-(trifluoromethyl}pyridin-4-yl)amino)-N-methylbenzamide] | 3.5 nM | 93%
CS(=O)(=O)c1cccc(CNc2nc(Nc3ccc4c(c3)CC(=O)N4CC3CCN(c4ccc5c(c4)C(=O)N(C4CCC(=O)NC4=O)C5=O)CC3)ncc2C(F)(F)F)c1 (centres unmarked) [Compound A23, 2-(2,6-dioxopiperidin-3-yl)-5-(4-((5-((4-((3-(methylsulfonyl)benzyl)amino)-5-(trifluoromethyl)pyrimidin-2-yl)amino)-2-oxoindolin-1-yl)methyl)piperidin-1-yl)isoindoline-1,3-dione] | 1.3 nM | 96%
